Holding throughout (assay): inhibition of tumour cell growth, NCI panel, 48 h
In test [1] the test system is UACC-257 melanoma.
Test [2] relates to HCT-15 colon.
The test system of test [3] is NCI-H522 lung.
Test [4] has as its system NCI-H460 lung.
In test [5] the test system is U251 CNS.
In test [6] the test system is RPMI-8226 leukemia.
The subject of test [7] is MOLT-4 leukemia.
Test [8] concerns NCI/ADR-RES ovarian.
The test system of test [9] is HT29 colon.
The test system of test [10] is IGROV1 ovarian.

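Cells were grown in 96-well plates and exposed to each compound for 48 hours at five concentrations; endpoints were interpolated linearly between bracketing concentrations, or set to the highest concentration if not reached. Abbreviation: GI50, concentration required for 50% inhibition of growth. The concentration for full growth arrest is given as TGI.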 Some results are limits rather than exact numbers.

On to `COc1cc(NC(=O)NCc2ccco2)ccc1-c1ccc(NC(=O)NCc2ccco2)cc1OC`, for which the GI50 is 2.72 µM in test [1]; 0.398 µM in [2]; 2 µM in test [3]; 0.526 µM in test [4]; 0.957 µM in [5]; over 100 µM in [6]. The values for the GI50 in [7] and in test [8] were 20.3 µM and over 100 µM, respectively. The TGI in test [1] is over 100 µM; in test [2], over 100 µM; in [3], 5.33 µM; in [4], over 100 µM; in test [5], 4.3 µM; in test [6], over 100 µM. Also, the TGI in [7] and in test [8] was over 100 µM each time.
In the case of `NS(=O)(=O)c1ccc(-n2ncc3c(Nc4ccccc4)ncnc32)cc1`, the GI50 in [1] is 39.4 µM; in test [2], 19.1 µM; in [3], 51.1 µM; in test [9], 3.33 µM; in test [4] it was 14.9 µM; in [5], 26.9 µM. For the same compound, the GI50 in test [6] was 15.3 µM; in [7], 14.5 µM; in test [8], 19.5 µM. The TGI in [1] is over 100 µM; in test [2] it was over 100 µM; in test [3], over 100 µM; in test [9], 15.7 µM; in test [4], over 100 µM; in [5], over 100 µM. For the same compound, the results for the TGI in [6], in test [7] and in [8] were 76.6 µM, 61.4 µM and 55.4 µM, respectively.
For the compound `CCOC(=O)C(C(=O)OCC)C(=O)c1ccccc1C(=O)c1ccccc1`, the TGI in test [1], in test [2], in test [3], in [9], in test [4] and in test [5] was over 100 µM in each case. The TGI in test [10] is over 100 µM; in [7] it was 83.6 µM; in [8], over 100 µM.
As for `COc1ccc(-c2cc(-c3cccc(NS(C)(=O)=O)c3)nc(N)c2C#N)cc1`, the GI50 in [2] is 0.108 µM; in test [3] it was 0.0164 µM; in [9], 0.0382 µM; in test [4], 0.0871 µM; in [5] it was 0.0577 µM; in test [6], 0.286 µM. Also, the GI50 in test [10] is 0.119 µM; in [7] it was 0.235 µM; in test [8], 0.0603 µM. The TGI came to 19.4 µM in test [2]; 1.25 µM in [3]; 0.731 µM in [9]; 10.8 µM in [4]; 19.3 µM in test [5]; 8.23 µM in [6]. The TGI is over 34.8 µM in test [10], over 100 µM in [7] and 1.1 µM in [8].
`CN(C)CCSCCO`: the TGI in test [1], in test [2], in [3], in test [9], in test [4] and in test [5] was over 100 µM throughout. The TGI in test [6], in test [10] and in test [8] was over 100 µM each time.
Regarding `Fc1ccc2c(c1)C1=C(CO2)C(c2ccc(Cl)cc2)NC(=S)N1` (stereo not drawn), the GI50 in test [1] is 29.4 µM; in test [2], 92.6 µM; in test [9] it was 51.3 µM; in test [4], 21.9 µM; in test [5] it was 18.7 µM; in test [6], 11.1 µM. In addition, the values for the GI50 in test [10], in [7] and in test [8] were 24.3 µM, 39.5 µM and 29.8 µM, respectively. For the same compound, the TGI in test [1] was 95.3 µM; in [2], over 100 µM; in test [9], over 100 µM; in [4], 61.8 µM; in [5] it was 63.1 µM; in test [6], 34.5 µM. For the same compound, the TGI is 61 µM in test [10], over 100 µM in [7] and 65.4 µM in [8].
Regarding `Cc1cc(N(CCCNc2ccnc3cc(Cl)ccc23)Cc2ccc3c(c2)OCO3)nc(N2CCCCC2)n1`, the GI50 was 2.2 µM in test [1]; 1.42 µM in test [2]; 1.89 µM in test [3]; 1.2 µM in test [9]; 2.06 µM in test [5]; 1.91 µM in test [6]. Moreover, the GI50 in test [10] is 1.58 µM; in [8], 2.43 µM. The TGI was found to be 4.22 µM in [1]; 3.05 µM in test [2]; 4.19 µM in test [3]; 3.02 µM in test [9]; 4.65 µM in test [5]; 4.93 µM in test [6]. The TGI in test [10] is 3.87 µM; in test [8] it was 8.03 µM.
On to `CCN(CC)CCn1c2ccc(OC)cc2c2sc3cc(OC)ccc3c(=O)c21`, for which the GI50 is 1.92 µM in test [1]; 0.861 µM in test [2]; 1.71 µM in test [3]; 1.51 µM in test [9]; 1.08 µM in [4]; 1.55 µM in test [5]. The GI50 is 1.53 µM in test [10], 0.383 µM in test [7] and 1.24 µM in test [8]. Moreover, the TGI came to 3.94 µM in test [1]; 2.66 µM in test [2]; 4.22 µM in test [3]; 9.12 µM in [9]; 2.52 µM in test [4]; 3.63 µM in test [5]. In addition, the results for the TGI in [10], in test [7] and in [8] were 3.61 µM, 1.89 µM and 3.6 µM, respectively.
`COc1ccc(-c2ccc(-c3ccc(C(=N)N)cn3)o2)cc1Cl`: the GI50 in test [1] was 2.35 µM; in test [2], 1.73 µM; in test [3] it was 1.85 µM; in test [9], 1.87 µM; in test [4], 1.89 µM; in [5], 1.79 µM. Also, the GI50 is 1.86 µM in test [10] and 2.56 µM in [8]. Besides, the TGI in test [1] was determined as 4.85 µM; in test [2], 3.38 µM; in test [3], 3.59 µM; in test [9] it was 3.78 µM; in [4], 3.63 µM; in [5], 3.53 µM. Moreover, the TGI in test [10] came to 3.63 µM; in test [8], 8.09 µM.

The record behind these values is PubChem BioAssay (NCI).
